Measurements from ChEMBL document CHEMBL1201862, “PubChem BioAssay data set” (2004).
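Test compounds were applied to cells in 96-well plates for 48 hours at 5 doses. GI50 marks 50% less growth.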 Calls of active or inactive are those of the source. No stated cut-off is given here; in the data, active = GI50 up to about 1.1 µM and inactive = higher.

What was measured:
Assay in all cases: NCI anticancer screen, dose series, 48 h
786-0 = tested on: 786-0
A498 = tested on: A498
A549 = tested on: A549
ACHN = tested on: ACHN
CAKI-1 = tested on: CAKI-1
CCRF-CEM = tested on: CCRF-CEM
COLO 205 = tested on: COLO 205
DLD-1 = tested on: DLD-1
DMS-114 = tested on: DMS-114
DMS-273 = tested on: DMS-273
EKVX = tested on: EKVX
HCC 2998 = tested on: HCC 2998
HCT-116 = tested on: HCT-116
HCT-15 = tested on: HCT-15
HL-60 = tested on: HL-60
HOP-18 = tested on: HOP-18
HOP-62 = tested on: HOP-62
HOP-92 = tested on: HOP-92
HT-29 = tested on: HT-29
IGROV-1 = tested on: IGROV-1
K562 = tested on: K562
KM-20L2 = tested on: KM-20L2
KM12 = tested on: KM12
LOX IMVI = tested on: LOX IMVI
LXFL 529 = tested on: LXFL 529
M14 = tested on: M14
M19-MEL = tested on: M19-MEL
MOLT-4 = tested on: MOLT-4
Malme-3M = tested on: Malme-3M
NCI-H226 = tested on: NCI-H226
NCI-H23 = tested on: NCI-H23
NCI-H460 = tested on: NCI-H460
NCI-H522 = tested on: NCI-H522
OVCAR-3 = tested on: OVCAR-3
OVCAR-4 = tested on: OVCAR-4
OVCAR-5 = tested on: OVCAR-5
OVCAR-8 = tested on: OVCAR-8
RPMI-8226 = tested on: RPMI-8226
RXF 393 = tested on: RXF 393
RXF 631 = tested on: RXF 631
SF-268 = tested on: SF-268
SF-295 = tested on: SF-295
SF-539 = tested on: SF-539
SK-MEL-28 = tested on: SK-MEL-28
SK-MEL-2 = tested on: SK-MEL-2
SK-MEL-5 = tested on: SK-MEL-5
SN12C = tested on: SN12C
SNB-19 = tested on: SNB-19
SNB-75 = tested on: SNB-75
SNB-78 = tested on: SNB-78
SR = tested on: SR
SW-620 = tested on: SW-620
TK-10 = tested on: TK-10
U-251 = tested on: U-251
UACC-257 = tested on: UACC-257
UACC-62 = tested on: UACC-62
UO-31 = tested on: UO-31
XF498 = tested on: XF498

`COc1ccc(NC(=O)CC(=O)N2N=C(N(CCC#N)c3ccccc3Cl)CC2c2ccccc2)cc1` (stereo not given) was tested, and the GI50 (786-0) was > 100 µM (inactive), the GI50 (A498) was > 100 µM (inactive) and the GI50 (A549) was > 100 µM (inactive). The GI50 (ACHN) was > 100 µM (inactive), the GI50 (CAKI-1) was > 100 µM (inactive) and the GI50 (CCRF-CEM) was > 100 µM (inactive). For the same compound, the GI50 (COLO 205) was > 100 µM (inactive), the GI50 (DLD-1) was > 100 µM (inactive) and the GI50 (DMS-114) was > 100 µM (inactive). The GI50 (DMS-273) was > 100 µM (inactive), the GI50 (EKVX) was > 100 µM (inactive) and the GI50 (HCC 2998) was > 100 µM (inactive). The GI50 (HCT-116) was > 100 µM (inactive), the GI50 (HCT-15) was greater than 100 µM and the GI50 (HL-60) was > 100 µM (inactive). The GI50 (HOP-18) was > 100 µM (inactive), the GI50 (HOP-62) was > 100 µM (inactive) and the GI50 (HOP-92) was > 100 µM (inactive). For the same compound, the GI50 (HT-29) was > 100 µM (inactive), the GI50 (IGROV-1) was > 100 µM (inactive) and the GI50 (K562) was > 100 µM (inactive). For the same compound, the GI50 (KM-20L2) was > 100 µM (inactive), the GI50 (KM12) was > 100 µM (inactive) and the GI50 (LOX IMVI) was > 100 µM (inactive). For the same compound, the GI50 (LXFL 529) was > 100 µM (inactive), the GI50 (M14) was > 100 µM (inactive) and the GI50 (M19-MEL) was > 100 µM (inactive). The GI50 (MOLT-4) was > 100 µM (inactive), the GI50 (Malme-3M) was > 100 µM (inactive) and the GI50 (NCI-H226) was > 100 µM (inactive). For the same compound, the GI50 (NCI-H23) was > 100 µM (inactive), the GI50 (NCI-H460) was > 100 µM (inactive) and the GI50 (NCI-H522) was > 100 µM (inactive). The GI50 (OVCAR-3) was > 100 µM (inactive), the GI50 (OVCAR-4) was > 100 µM (inactive) and the GI50 (OVCAR-5) was > 100 µM (inactive). For the same compound, the GI50 (OVCAR-8) was > 100 µM (inactive), the GI50 (RPMI-8226) was > 100 µM (inactive) and the GI50 (RXF 393) was > 100 µM (inactive). The GI50 (RXF 631) was > 100 µM (inactive), the GI50 (SF-268) was > 100 µM (inactive) and the GI50 (SF-295) was > 100 µM (inactive). For the same compound, the GI50 (SF-539) was > 100 µM (inactive), the GI50 (SK-MEL-28) was > 100 µM (inactive) and the GI50 (SK-MEL-2) was > 100 µM (inactive). The GI50 (SK-MEL-5) was > 100 µM (inactive), the GI50 (SN12C) was > 100 µM (inactive) and the GI50 (SNB-19) was > 100 µM (inactive). For the same compound, the GI50 (SNB-75) was > 100 µM (inactive), the GI50 (SNB-78) was > 100 µM (inactive) and the GI50 (SR) was > 100 µM (inactive). The GI50 (SW-620) was > 100 µM (inactive), the GI50 (TK-10) was > 100 µM (inactive) and the GI50 (U-251) was > 100 µM (inactive). For the same compound, the GI50 (UACC-257) was > 100 µM (inactive), the GI50 (UACC-62) was > 100 µM (inactive) and the GI50 (UO-31) was > 100 µM (inactive). For the same compound, the GI50 (XF498) was > 100 µM (inactive).

In the case of `COc1ccc(/C=C2\CCC(C)(CN(C)C)C2=O)cc1` (stereo not given), the GI50 (786-0) is reported as > 100 µM (inactive), the GI50 (A498) is reported as > 100 µM (inactive) and the GI50 (A549) is reported as > 100 µM (inactive). The GI50 (ACHN) was > 100 µM (inactive), the GI50 (CAKI-1) was 18.7 µM (inactive) and the GI50 (COLO 205) was > 100 µM (inactive). The GI50 (DLD-1) was > 100 µM (inactive), the GI50 (DMS-114) was 76 µM (inactive) and the GI50 (DMS-273) was > 100 µM (inactive). The GI50 (EKVX) was > 100 µM (inactive), the GI50 (HCC 2998) was > 100 µM (inactive) and the GI50 (HCT-116) was > 100 µM (inactive). The GI50 (HCT-15) was 60.8 µM, the GI50 (HL-60) was 56.4 µM (inactive) and the GI50 (HOP-18) was > 100 µM (inactive). For the same compound, the GI50 (HOP-62) was > 100 µM (inactive), the GI50 (HOP-92) was > 100 µM (inactive) and the GI50 (HT-29) was > 100 µM (inactive). The GI50 (IGROV-1) was > 100 µM (inactive), the GI50 (K562) was 64 µM (inactive) and the GI50 (KM-20L2) was > 100 µM (inactive). The GI50 (KM12) was > 100 µM (inactive), the GI50 (LOX IMVI) was > 100 µM (inactive) and the GI50 (LXFL 529) was > 100 µM (inactive). For the same compound, the GI50 (M14) was > 100 µM (inactive), the GI50 (M19-MEL) was > 100 µM (inactive) and the GI50 (MOLT-4) was > 100 µM (inactive). The GI50 (Malme-3M) was > 100 µM (inactive), the GI50 (NCI-H226) was > 100 µM (inactive) and the GI50 (NCI-H23) was > 100 µM (inactive). The GI50 (NCI-H460) was > 100 µM (inactive), the GI50 (NCI-H522) was 16.3 µM (inactive) and the GI50 (OVCAR-3) was > 100 µM (inactive). The GI50 (OVCAR-4) was > 100 µM (inactive), the GI50 (OVCAR-5) was > 100 µM (inactive) and the GI50 (OVCAR-8) was > 100 µM (inactive). For the same compound, the GI50 (RPMI-8226) was 38 µM (inactive), the GI50 (RXF 393) was > 100 µM (inactive) and the GI50 (RXF 631) was 40.4 µM (inactive). For the same compound, the GI50 (SF-268) was > 100 µM (inactive), the GI50 (SF-295) was > 100 µM (inactive) and the GI50 (SF-539) was > 100 µM (inactive). For the same compound, the GI50 (SK-MEL-28) was > 100 µM (inactive), the GI50 (SK-MEL-2) was > 100 µM (inactive) and the GI50 (SK-MEL-5) was > 100 µM (inactive). The GI50 (SN12C) was > 100 µM (inactive), the GI50 (SNB-19) was 6.18 µM (inactive) and the GI50 (SNB-75) was > 100 µM (inactive). The GI50 (SNB-78) was > 100 µM (inactive), the GI50 (SR) was > 10 µM (inactive) and the GI50 (SW-620) was > 100 µM (inactive). For the same compound, the GI50 (TK-10) was > 100 µM (inactive), the GI50 (U-251) was 76.4 µM (inactive) and the GI50 (UACC-257) was > 100 µM (inactive). The GI50 (UACC-62) was > 100 µM (inactive), the GI50 (UO-31) was > 100 µM (inactive) and the GI50 (XF498) was > 100 µM (inactive).
